Laboratory results as given in the supplement of paper PMC10307832.

Legend:
Experiment in all cases: relative viability (nuclei count vs DMSO), 5 days (fraction); higher = more cells survive
17-AAG + Trametinib = compound: C=CCNC1=C2C[C@@H](C)C[C@H](OC)[C@H](O)[C@@H](C)/C=C(\C)[C@H](OC(N)=O)[C@@H](OC)/C=C\C=C(/C)C(=O)NC(=CC1=O)C2=O [17-AAG] + CC(=O)Nc1cccc(-n2c(=O)n(C3CC3)c(=O)c3c(Nc4ccc(I)cc4F)n(C)c(=O)c(C)c32)c1 [Trametinib] (partner 0.02 µM)
Method in brief: (§1)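 Lung cancer cell lines, seeded in 1536-well plates, were treated the following day by pin tool with a single drug or with five library-drug doses (not always all listed) in √10 steps on top of a fixed anchor-drug dose. Cells were fixed and nuclei stained in one step after 5 days, and nuclei were counted. Relative viability is the nuclei count for treated wells divided by that for vehicle wells, reported as medians of duplicate plates.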

17-AAG + AZD7762 = compound: C=CCNC1=C2C[C@@H](C)C[C@H](OC)[C@H](O)[C@@H](C)/C=C(\C)[C@H](OC(N)=O)[C@@H](OC)/C=C\C=C(/C)C(=O)NC(=CC1=O)C2=O [17-AAG] + NC(=O)Nc1cc(-c2cccc(F)c2)sc1C(=O)N[C@H]1CCCNC1 [AZD7762] (partner 0.2 µM)
Method in brief: as §1

17-AAG + Tozasertib = compound: C=CCNC1=C2C[C@@H](C)C[C@H](OC)[C@H](O)[C@@H](C)/C=C(\C)[C@H](OC(N)=O)[C@@H](OC)/C=C\C=C(/C)C(=O)NC(=CC1=O)C2=O [17-AAG] + Cc1cc(Nc2cc(N3CCN(C)CC3)nc(Sc3ccc(NC(=O)C4CC4)cc3)n2)n[nH]1 [Tozasertib] (partner 0.1 µM)
Method in brief: as §1

17-AAG = compound: C=CCNC1=C2C[C@@H](C)C[C@H](OC)[C@H](O)[C@@H](C)/C=C(\C)[C@H](OC(N)=O)[C@@H](OC)/C=C\C=C(/C)C(=O)NC(=CC1=O)C2=O [17-AAG]
Method in brief: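 Only plates meeting two conditions passed: control CV below 25% and at least one doubling. Lung cancer cell lines, kept overnight at 37 °C in 1536-well plates, were pinned with five library-drug doses (not always all listed) √10 apart on vehicle-anchored plates and grown 5 days without medium change. A one-step fix, permeabilisation and Hoechst stain preceded 4× imaging and MetaXpress nuclear counting. Viability equals treated-well nuclei divided by vehicle-well nuclei, as the median over plates.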

Row | Cell Line | relative viability (17-AAG + Trametinib; first compound 0.00128 µM) | relative viability (17-AAG + Trametinib; first compound 0.004048 µM) | relative viability (17-AAG + Trametinib; first compound 0.0128 µM) | relative viability (17-AAG + Trametinib; first compound 0.04048 µM) | relative viability (17-AAG + Trametinib; first compound 0.128 µM) | relative viability (17-AAG + AZD7762; first compound 0.00128 µM) | relative viability (17-AAG + AZD7762; first compound 0.004048 µM) | relative viability (17-AAG + AZD7762; first compound 0.0128 µM) | relative viability (17-AAG + AZD7762; first compound 0.04048 µM) | relative viability (17-AAG + AZD7762; first compound 0.128 µM) | relative viability (17-AAG + Tozasertib; first compound 0.00128 µM) | relative viability (17-AAG + Tozasertib; first compound 0.004048 µM) | relative viability (17-AAG + Tozasertib; first compound 0.0128 µM) | relative viability (17-AAG + Tozasertib; first compound 0.04048 µM) | relative viability (17-AAG + Tozasertib; first compound 0.128 µM) | relative viability (17-AAG; 0.00128 µM) | relative viability (17-AAG; 0.004048 µM) | relative viability (17-AAG; 0.0128 µM) | relative viability (17-AAG; 0.04048 µM) | relative viability (17-AAG; 0.128 µM)
1 | NCI-H727 | 0.356 | 0.409 | 0.319 | 0.237 | 0.221 | 0.6 | 0.491 | 0.56 | 0.298 | 0.305 | 0.569 | 0.682 | 0.53 | 0.453 | 0.25 | 0.989 | 0.922 | 0.858 | 0.5 | 0.344
2 | LK-2 | 0.85 | 0.846 | 0.789 | 0.577 | 0.184 | 0.481 | 0.522 | 0.149 | 0.115 | 0.0799 | 0.161 | 0.174 | 0.153 | 0.227 | 0.172 | 1.17 | 1 | 0.816 | 0.519 | 0.159
3 | NCI-H1993 | 0.61 | 0.464 | 0.49 | 0.313 | 0.387 | 0.936 | 0.644 | 0.325 | 0.339 | 0.248 | 0.56 | 0.591 | 0.585 | 0.42 | 0.453 | 0.937 | 0.909 | 0.611 | 0.476 | 0.432
4 | PC-14 | 0.619 | 0.111 | 0.0838 | 0.101 | 0.0786 | 0.288 | 0.293 | 0.144 | 0.0832 | 0.129 | 0.55 | 0.472 | 0.27 | 0.067 | 0.0544 | 0.967 | 0.742 | 0.398 | 0.108 | 0.0843
5 | NCI-H1437 | 0.582 | 0.562 | 0.32 | 0.291 | 0.195 | 1.1 | 1.07 | 0.651 | 0.271 | 0.201 | 0.4 | 0.477 | 0.296 | 0.311 | 0.164 | 1.03 | 0.931 | 0.637 | 0.249 | 0.178
6 | NCI-H2170 | 0.958 | 0.843 | 0.91 | 0.402 | 0.134 | 0.832 | 0.734 | 0.305 | 0.126 | 0.128 | 0.739 | 0.77 | 0.65 | 0.327 | 0.173 | 1.01 | 0.973 | 0.605 | 0.178 | 0.168
7 | NCI-H1648 |  | 0.541 | 0.463 | 0.368 | 0.219 |  | 0.854 | 0.558 | 0.626 | 0.325 | 0.433 |  | 0.426 | 0.608 | 0.327 | 0.888 | 1.08 | 0.839 | 0.673 | 0.59
8 | LCLC-103H | 0.711 | 0.692 | 0.661 | 0.739 | 0.669 | 0.756 | 0.755 | 0.742 | 0.834 | 0.835 | 0.555 | 0.55 | 0.458 | 0.532 | 0.643 | 1.02 | 1 | 0.957 | 1.04 | 1.07
9 | NCI-H460 | 0.202 | 0.0484 | 0.0114 | 0.0258 | 0.0229 | 0.549 | 0.676 | 0.0907 | 0.0489 | 0.0524 | 0.478 | 0.521 | 0.0911 | 0.0297 | 0.0214 | 0.96 | 0.965 | 0.198 | 0.0341 | 0.0297
10 | BEN | 1.07 | 1.16 | 1.31 | 1.07 | 0.613 | 0.692 | 0.891 | 0.648 | 0.5 | 0.392 | 0.529 | 0.625 | 0.473 | 0.738 | 0.472 | 1.01 | 1.1 | 1.11 | 0.829 | 0.36
11 | LC-2-ad | 0.974 | 0.954 | 0.875 | 0.408 | 0.223 | 0.841 | 0.835 | 0.714 | 0.297 | 0.161 | 0.437 | 0.437 | 0.429 | 0.316 | 0.226 | 0.943 | 0.974 | 0.793 | 0.27 | 0.19
12 | SW 900 | 0.587 | 0.513 | 0.208 | 0.128 | 0.153 | 0.661 | 0.68 | 0.255 | 0.11 | 0.133 | 0.684 | 0.565 | 0.262 | 0.133 | 0.113 | 0.831 | 0.727 | 0.312 | 0.155 | 0.141
13 | NCI-H1915 | 0.293 | 0.302 | 0.23 | 0.103 | 0.0681 | 0.587 | 0.719 | 0.219 | 0.12 | 0.0582 | 0.455 | 0.442 | 0.401 | 0.392 | 0.111 | 0.917 | 0.966 | 0.952 | 0.152 | 0.0877
14 | NCI-H647 | 0.402 | 0.29 | 0.0765 | 0.0969 | 0.0756 | 0.487 | 0.175 | 0.0631 | 0.074 | 0.0589 | 0.419 | 0.222 | 0.0879 | 0.0995 | 0.0751 | 0.985 | 0.779 | 0.135 | 0.108 | 0.091
15 | NCI-H2126 | 0.576 | 0.568 | 0.625 | 0.594 | 0.443 | 0.977 | 0.975 | 0.885 | 0.265 | 0.231 | 0.9 | 0.842 | 0.44 | 0.26 | 0.298 | 1.01 | 0.995 | 0.957 | 0.435 | 0.26
16 | LXF-289 | 0.667 | 0.661 | 0.686 | 0.58 | 0.145 | 1.09 | 1.1 | 0.617 | 0.151 | 0.0926 | 0.204 | 0.22 | 0.203 | 0.127 | 0.0677 | 1.01 | 1 | 0.872 | 0.167 | 0.121
17 | HCC-44 | 1.04 | 1.01 | 0.988 | 1.05 | 0.804 | 1 | 1.02 | 1.03 | 0.973 | 0.398 | 0.898 | 0.753 | 0.293 | 0.19 | 0.135 | 1 | 0.976 | 0.992 | 0.278 | 0.19
18 | NCI-H2342 | 0.8 | 0.799 | 0.79 | 0.631 | 0.7 | 0.441 | 0.739 | 0.468 | 0.447 | 0.359 | 0.442 | 0.437 | 0.518 | 0.493 | 0.306 | 0.951 | 1.01 | 1.01 | 0.78 | 0.428
19 | PC-3 [JPC-3] | 0.681 | 0.711 | 0.68 | 0.472 | 0.551 | 0.776 | 0.8 | 0.888 | 0.541 | 0.59 | 0.894 | 0.847 | 0.922 |  | 0.839 | 1.01 | 1.06 | 1.01 |  | 0.873
20 | HOP-62 | 0.396 | 0.35 | 0.355 | 0.191 | 0.167 | 0.733 | 0.416 | 0.256 | 0.11 | 0.0928 | 0.363 | 0.466 | 0.386 | 0.212 | 0.17 | 1.03 | 0.881 | 0.904 | 0.436 | 0.126
21 | NCI-H358 | 0.128 | 0.0832 | 0.0659 | 0.0673 | 0.0679 | 0.522 | 0.381 | 0.132 | 0.142 | 0.139 | 0.115 | 0.0905 | 0.0894 | 0.0684 | 0.0644 | 0.889 | 0.532 | 0.119 | 0.115 | 0.103
22 | NCI-H1666 | 0.858 | 0.826 | 0.639 | 0.575 | 0.481 | 0.725 | 0.902 | 0.531 | 0.35 | 0.292 | 0.589 | 0.599 | 0.46 | 0.343 | 0.294 | 1.01 | 0.913 | 0.723 | 0.47 | 0.364
23 | NCI-H1355 | 0.466 | 0.446 | 0.363 | 0.241 | 0.167 | 0.795 | 0.682 | 0.311 | 0.236 | 0.144 | 0.554 | 0.583 | 0.543 | 0.555 | 0.167 | 0.983 | 0.974 | 0.899 | 0.193 | 0.159
24 | HCC-827 | 0.508 | 0.508 | 0.502 |  | 0.311 | 0.216 | 0.238 | 0.163 |  | 0.164 | 0.402 | 0.427 | 0.467 |  | 0.432 | 1.05 | 0.997 | 1.02 |  | 0.77
25 | HARA | 0.893 | 0.598 | 0.81 | 0.66 | 0.149 | 0.425 | 0.295 | 0.209 | 0.251 | 0.18 | 0.0961 | 0.125 | 0.135 | 0.148 | 0.132 | 0.952 | 1.12 | 1 | 0.474 | 0.183
26 | HCC-366 | 0.399 | 0.389 | 0.0548 | 0.0372 | 0.0284 | 0.281 | 0.402 | 0.045 | 0.0325 | 0.0323 | 0.191 | 0.22 | 0.268 | 0.044 | 0.0391 | 1.02 | 1.04 | 0.49 | 0.0512 | 0.0477
27 | NCI-H441 | 0.454 | 0.439 | 0.148 | 0.132 | 0.0927 | 1.07 | 1.02 | 0.669 | 0.118 | 0.108 | 0.723 | 0.609 | 0.321 | 0.235 | 0.15 | 0.857 | 0.693 | 0.223 | 0.192 | 0.105
